# Test results from PubChem BioAssay (NCI).
#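 Compound exposure: 48 hours, 5 concentrations, 96-well plates. GI50: concentration for 50% inhibition of growth. TGI: concentration producing complete growth inhibition.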
# Experiments:
# Test in all cases: growth of human tumour cells (NCI), 48 h
# [1] = test system: HL-60(TB) leukemia
# [2] = test system: HCT-15 colon
# [3] = test system: U251 CNS
# [4] = test system: SW-620 colon
# [5] = test system: CAKI-1 renal
# [6] = test system: HCT-116 colon
# [7] = test system: HOP-92 NSCLC
# [8] = test system: MCF7 breast
# [9] = test system: OVCAR-4 ovarian
# [10] = test system: BT-549 breast
# [11] = test system: HOP-62 NSCLC
# [12] = test system: NCI-H23 lung
# [13] = test system: MDA-MB-231 breast
# [14] = test system: A498 renal
# [15] = test system: OVCAR-3 ovarian
# [16] = test system: UO-31 renal
# [17] = test system: T-47D breast
# [18] = test system: NCI-H460 lung
# [19] = test system: NCI-H522 lung
# [20] = test system: RPMI-8226 leukemia
# [21] = test system: TK-10 renal
# [22] = test system: COLO 205 colon
# [23] = test system: SF-268 CNS
# [24] = test system: NCI-H226 lung
# [25] = test system: HT29 colon
# [26] = test system: UACC-257 melanoma
# [27] = test system: IGROV1 ovarian
# [28] = test system: CCRF-CEM leukemia
# [29] = test system: OVCAR-8 ovarian
# [30] = test system: K-562 leukemia
# [31] = test system: UACC-62 melanoma
# [32] = test system: EKVX NSCLC
# [33] = test system: SK-MEL-5 melanoma
# [34] = test system: SNB-19 CNS
# [35] = test system: MDA-MB-435
# [36] = test system: PC-3 prostate
# [37] = test system: SK-MEL-28 melanoma
# [38] = test system: ACHN renal
# [39] = test system: A549 NSCLC
# [40] = test system: DU-145 prostate
# [41] = test system: MALME-3M melanoma
# [42] = test system: 786-0 renal
# [43] = test system: SK-OV-3 ovarian
# [44] = test system: HS 578T breast
# [45] = test system: SF-539 CNS
# [46] = test system: RXF 393 renal
# [47] = test system: HCC-2998 colon
# [48] = test system: OVCAR-5 ovarian
# [49] = test system: SN12C renal
# [50] = test system: SK-MEL-2 melanoma
# [51] = test system: SR leukemia
# [52] = test system: SF-295 CNS
# [53] = test system: KM12 colon
# [54] = test system: MOLT-4 leukemia
# [55] = test system: NCI/ADR-RES ovarian
# [56] = test system: LOX IMVI melanoma
# [57] = test system: SNB-75 CNS
compound,measurement,setting,value
C#CCN(C)CCCOc1ccc(NC(=O)CCCCCCC(=O)NO)cc1Cl,GI50,[1],0.589 µM
same,TGI,[1],> 100 µM
same,GI50,[2],5.03 µM
same,TGI,[2],> 100 µM
same,GI50,[3],1.41 µM
same,TGI,[3],7.21 µM
same,GI50,[4],0.698 µM
same,TGI,[4],4.31 µM
same,GI50,[5],1.65 µM
same,TGI,[5],8.08 µM
same,GI50,[6],0.437 µM
same,TGI,[6],6.26 µM
same,GI50,[7],0.725 µM
same,TGI,[7],4.56 µM
same,GI50,[8],0.813 µM
same,TGI,[8],17.4 µM
same,GI50,[9],4.41 µM
same,TGI,[9],> 100 µM
same,GI50,[10],3.48 µM
same,TGI,[10],30 µM
same,GI50,[11],1.85 µM
same,TGI,[11],24 µM
same,GI50,[12],2.44 µM
same,TGI,[12],18.9 µM
same,GI50,[13],1.83 µM
same,TGI,[13],16.4 µM
same,GI50,[14],1.16 µM
same,TGI,[14],3.04 µM
same,GI50,[15],1.48 µM
same,TGI,[15],13.2 µM
same,GI50,[16],1.5 µM
same,TGI,[16],7.04 µM
same,GI50,[17],0.608 µM
same,TGI,[17],> 100 µM
same,GI50,[18],1.1 µM
same,TGI,[18],> 100 µM
same,GI50,[19],0.431 µM
same,TGI,[19],8.2 µM
same,GI50,[20],1.05 µM
same,TGI,[20],6.78 µM
same,GI50,[21],1.41 µM
same,TGI,[21],11 µM
same,GI50,[22],0.648 µM
same,TGI,[22],2.45 µM
same,GI50,[23],2.92 µM
same,TGI,[23],16.4 µM
same,GI50,[24],4.13 µM
same,TGI,[24],30.6 µM
same,GI50,[25],1.42 µM
same,TGI,[25],43 µM
same,GI50,[26],0.587 µM
same,TGI,[26],13.4 µM
same,GI50,[27],1.23 µM
same,TGI,[27],4.34 µM
same,GI50,[28],0.375 µM
same,TGI,[28],> 100 µM
same,GI50,[29],0.793 µM
same,TGI,[29],> 100 µM
same,GI50,[30],0.549 µM
same,TGI,[30],> 100 µM
same,GI50,[31],0.57 µM
same,TGI,[31],4.18 µM
same,GI50,[32],3.47 µM
same,TGI,[32],> 100 µM
same,GI50,[33],0.853 µM
same,TGI,[33],2.43 µM
same,GI50,[34],2.26 µM
same,TGI,[34],17.7 µM
same,GI50,[35],0.835 µM
same,TGI,[35],5.97 µM
same,GI50,[36],1.53 µM
same,TGI,[36],> 100 µM
same,GI50,[37],1.44 µM
same,TGI,[37],11.3 µM
same,GI50,[38],2.82 µM
same,TGI,[38],12.7 µM
same,GI50,[39],2.14 µM
same,TGI,[39],13.6 µM
same,GI50,[40],1.68 µM
same,TGI,[40],> 100 µM
same,GI50,[41],0.373 µM
same,TGI,[41],28.4 µM
same,GI50,[42],3.52 µM
same,TGI,[42],25.7 µM
same,GI50,[43],1.54 µM
same,TGI,[43],12.6 µM
same,GI50,[44],1.15 µM
same,TGI,[44],7.31 µM
same,GI50,[45],1.66 µM
same,TGI,[45],17 µM
same,GI50,[46],0.272 µM
same,TGI,[46],1.11 µM
same,GI50,[47],1.47 µM
same,TGI,[47],4.23 µM
same,GI50,[48],1.7 µM
same,TGI,[48],45.7 µM
same,GI50,[49],2.78 µM
same,TGI,[49],> 100 µM
same,GI50,[50],3.05 µM
same,TGI,[50],21.8 µM
same,GI50,[51],0.53 µM
same,TGI,[51],> 100 µM
same,GI50,[52],1.68 µM
same,TGI,[52],4.71 µM
same,GI50,[53],1.91 µM
same,TGI,[53],15.9 µM
same,GI50,[54],0.338 µM
same,TGI,[54],> 100 µM
same,GI50,[55],5.41 µM
same,TGI,[55],> 100 µM
same,TGI,[56],0.12 µM
same,GI50,[57],0.606 µM
same,TGI,[57],32.1 µM
